Key:
[1] = logP by HPLC on reversed-phase column (C 18), EEC Directive 79/831 Annex V.A8; type: physicochemical; conditions: for chromatographic logP: reversed-phase C18 HPLC column, value in preparation example text, read-out: log P (pH 2.3)
Description: Temperature: 40° C.; Mobile phases: 0.1% aqueous formic acid and acetonitrile; linear gradient from 10% acetonitrile to 90% acetonitrile.

Phaedon cochleariae = assay: In vivo protective test on Phaedon cochleariae (PHAECO); conditions: Chinese cabbage leaf-disks sprayed, infested with mustard beetle larvae; concentration not given
Description: In vivo Protective Test on Phaedon cochleariae (PHAECO)
(§1) To produce a suitable preparation of active compound, 1 part by weight of active compound is mixed with the stated amount of solvent and emulsifier, and the concentrate is diluted with emulsifier-containing water to the desired concentration.
Chinese cabbage (Brassica pekinesis) leaf-disks are sprayed with a preparation of the active ingredient of the desired concentration. Once dry, the leaf disks are infested with mustard beetle larvae (Phaedon cochleariae).
After the specified period of time, mortality in % is determined. 100% means that all beetle larvae have been killed and 0% means that none of the beetle larvae have been killed.

Myzus persicae = assay: In vivo protective test on Myzus persicae (MYZUPE); conditions: Chinese cabbage leaf-disks infected with green peach aphid, sprayed; concentration not given
Description: In vivo Protective Test on Myzus persicae (MYZUPE)
as §1
Chinese cabbage (Brassica pekinesis) leaf-disks infected with all instars of the green peach aphid (Myzus persicae), are sprayed with a preparation of the active ingredient at the desired concentration.
After the specified period of time, mortality in % is determined. 100% means that all aphids have been killed; 0% means that none of the aphids have been killed.

Tetranychus urticae = assay: In vivo protective test on Tetranychus urticae (TETRUR); conditions: French bean infested with two spotted spidermite, sprayed; concentration not given
Description: In vivo Protective Test on Tetranychus urticae (TETRUR)
as §1
French bean (Phaseolus vulgaris) which are heavily infested with all stages of the two spotted spidermite (Tetranychus urticae), are sprayed with a preparation of the active ingredient at the desired concentration.
After the specified period of time, mortality in % is determined. 100% means that all spider mites have been killed and 0% means that none of the spider mites have been killed.

[2] = HPLC, 0.1% aqueous formic acid and acetonitrile, 40° C., pH 2.3
[3] = measured at pH = 4 (footnote a)

Compound	logPa [1, 2]	also measured
CCCN(C)C=Nc1cc(C)c(Oc2ccnc(Oc3cccc(Cl)c3C)n2)cc1C [Compound 18]	2.21	activity (mortality) (Phaedon cochleariae): good activity
CCCN(C)C=Nc1cc(C)c(Oc2ccnc(Oc3ccccc3)n2)cc1C [Compound 36]	1.87	activity (mortality) (Myzus persicae): good activity
CCN(C)C=Nc1cc(C)c(Oc2ccnc(N(C)C)n2)cc1C [Compound 37]	0.66	activity (mortality) (Tetranychus urticae): good activity
Cc1cc(Oc2cc(C)c(N=CN(C)C(C)C)cc2C)nc(Cl)n1 [Compound 41]	1.57	activity (mortality) (Myzus persicae): good activity
CCN(C)C=Nc1cc(C)c(Oc2ccnc(Oc3cccc(Cl)c3)n2)cc1C [Compound 65]	2.04	activity (mortality) (Myzus persicae): good activity
Cc1cc(Oc2ccnc(Oc3ccc(C(F)(F)F)cc3)n2)c(C)cc1N=CN1CCCCC1 [Compound 88]	2.49	
CCN(C)C=Nc1cc(C)c(Oc2ncc(Cl)c(N(C)CC)n2)cc1C [Compound 89, N′-[4-({5-chloro-4-[ethyl(methyl)amino]pyrimidin-2-yl}oxy)-2,5-dimethyl-phenyl]-N-ethyl-N-methylimidoformamide]	1.82	chromatographic logP ([1]; pH 2.3): 1.82
CCN(C)C=Nc1cc(C)c(Oc2nccc(C(F)(F)F)n2)cc1C [Compound 90]		logPa [1, 3]: 0.22^a
CCN(C)C=Nc1cc(C(C)C)c(Oc2nccc(C(F)(F)F)n2)cc1C [Compound 92]		logPa [1, 3]: 1.10^a
CCN(C)C=Nc1cc(C)c(Oc2ncc(C)c(C)n2)cc1C [Compound 93]	1.19	
CCCN(C)C=Nc1cc(C)c(Oc2ncc(C)c(C)n2)cc1C [Compound 94]	1.4	
CCN(C)C=Nc1cc(C)c(Oc2ncc(Cl)cn2)cc1C [Compound 95]	1.32	
CCCN(C)C=Nc1cc(C)c(Oc2ncc(Cl)cn2)cc1C [Compound 96]	1.48	
Cc1cc(Oc2ncc(Cl)cn2)c(C)cc1N=CN(C)C(C)C [Compound 97]	1.41	
CCCN(C)C=Nc1cc(C)c(Oc2nccc(C(F)(F)F)n2)cc1C [Compound 98]	1.7	
CCN(C)c1nc(Oc2cc(C)c(N=CN(C)C(C)C)cc2C)ncc1Cl [Compound 99]	1.98	
CCCN(C)C=Nc1cc(C)c(Oc2ncc(Cl)c(N(C)CC)n2)cc1C [Compound 100]	1.95	
CCN(C)c1nc(Oc2cc(C)c(N=CN3CCCCC3)cc2C)ncc1Cl [Compound 101]	1.93	
CCN(C)C=Nc1cc(C)c(Oc2nccc(Oc3ccccc3)n2)cc1C [Compound 102]	1.82	
CCN(C)C=Nc1cc(C)c(Oc2nccc(Oc3cccc(Cl)c3)n2)cc1C [Compound 103]	2.13	
Cc1cc(Oc2ccnc(N(C)c3ccccc3)n2)c(C)cc1N [[4-(4-Amino-2,5-dimethyl-phenoxy)-pyrimidin-2-yl]-methyl-phenyl-amine]		chromatographic logP ([1]; pH 2.3): 1.72

Reference: patent publication US7727986B2, “Pesticide pyrimidinyloxy substituted phenylamidine derivatives” (Bayer CropScience AG, priority 2005, dated 2010)
